Test results reported in ChEMBL document CHEMBL2429793, “Potent cytotoxic flavonoids from Iranian Securigera securidaca” (Med Chem Res, 2013).
≈ marks a conversion by molar mass, not a printed value.

Tests used:
NIH3T3 = assay: Cytotoxicity against mouse NIH/3T3 cells after 96 hrs by MTT assay; assay type: cell-based; conditions: NIH3T3, 96 h
HT-29 = assay: Cytotoxicity against human HT-29 cells after 48 hrs by MTT assay; assay type: functional, cell-based; conditions: HT-29, 48 h
T47D = assay: Cytotoxicity against human T47D cells after 48 hrs by MTT assay; assay type: functional, cell-based
Caco-2 = assay: Cytotoxicity against human Caco2 cells after 48 hrs by MTT assay; assay type: functional, cell-based; conditions: Caco-2, 48 h
Bel-7402 = assay: Cytotoxicity against human Bel7402 cells; assay type: functional, cell-based
HCT-116 = assay: Cytotoxicity against human HCT116 cells; assay type: functional, cell-based

Row | Compound | IC50 (NIH3T3) | IC50 (HT-29) | IC50 (T47D) | IC50 (Caco-2) | IC50 (Bel-7402) | IC50 (HCT-116)
1 | CN(Cc1cnc2nc(N)nc(N)c2n1)c1ccc(C(=O)N[C@@H](CCC(=O)O)C(=O)O)cc1 [METHOTREXATE] | 0.24 µg/mL (≈ 0.528 µM) | – | – | – | – | –
2 | O=c1c(-c2ccc(O[C@@H]3O[C@H](CO)[C@@H](O)[C@H](O)[C@H]3O)c(O)c2)coc2cc(O)cc(O)c12 | > 200 µg/mL | 0.009 µg/mL (≈ 0.0201 µM) | 0.169 µg/mL (≈ 0.377 µM) | 0.006 µg/mL (≈ 0.0134 µM) | – | –
3 | COc1cc(-c2oc3cc(O)cc(O)c3c(=O)c2O[C@@H]2O[C@H](CO)[C@@H](O)[C@H](O)[C@H]2O[C@@H]2O[C@@H](C)[C@H](O)[C@@H](O)[C@H]2O)ccc1O | > 200 µg/mL | – | 0.003 µg/mL (≈ 0.0048 µM) | 2.47 µg/mL (≈ 3.95 µM) | 74.4 µM | 72 µM
4 | O=C(/C=C/c1ccc(O)cc1)c1c(O)cc(O)cc1O[C@@H]1O[C@H](CO)[C@@H](O)[C@H](O)[C@H]1O | > 200 µg/mL | – | > 200 µg/mL | 8.45 µg/mL (≈ 19.5 µM) | – | –
